# In patent US10064911B2, “Peptides for treating cancer” (The Board of Trustees of the University of Illinois, priority 2015, dated 2018):
# “Also recorded” adds a separate entry of the source.
# Tests used:
# [1] = test system: MDA-MB-231 human breast cancer cells; assay: Triple negative breast cancer xenograft: tumor growth and neovascularization; assay type: in vivo, Nude mice; conditions: for number of vessels outside of the tumor: H&E staining
# Description: FIG. 8A plots tumor growth curve in xenograft model; mean is shown; n=8 mice per group. FIG. 8B plots the number of vessels per area counted outside of the tumor; n=25 fields/mouse; N=5 mice; *, p<0.05; **, p<0.01.
# The effect of EBIN on growth rate of triple negative (estrogen receptor [ER], progesterone receptor [PR] and human epidermal growth factor receptor-2 [HER-2] are not expressed in this cell line) human breast cancer cells using a xenograft model was investigated. Nude mice (n=8 mice per group) were injected with 3×10^6 MDA-MB-231 human breast cancer cells into the upper left mammary fat pad. All mice developed the tumor by day 13. At that time point, mice were randomized and divided by 5 groups and each group received the treatment. Study was terminated at day 24 when the tumor reached 2000 mm^3 in size. The treatment with control peptide and EBIN was performed daily for 7 days. EBIN and control peptide were delivered via tail vein injection. Control peptide was injected at 5 μM/kg body weight. EBIN was injected at 1 μM/kg and 5 μM/kg body weight.
# Treatment with taxol was performed via intraperitoneal injection at 10 μM/kg body weight for 4 days. Tumor size was measured 3 times a week.
# To correlate the effect of EBIN treatment with tumor neovascularization, tumor tissue was collected, fixed and stained with hematoxylin and eosin (H&E). Number of […] outside of the tumor mass was scored and normalized per area.
# [2] = test system: HMVECs; assay: Thrombin-induced Ca2+ release from ER stores in HMVECs (Fura 2-AM); assay type: cell-based; conditions: pre-treatment with 5 μg/ml for 20 min prior to thrombin stimulation
# Procedure: (FIG. 4A) HMVECs pre-treated with AP-attached IP3R3 peptide or control (AP) peptide were loaded with Fura 2-AM and 340/380 ratio was calculated after stimulation of cells with thrombin (50 nM) in the absence and in the presence of extracellular Ca^2+. Arrow, time of thrombin addition. […] The increase is normalized to control non-treated cells from the same experiment (n=4).
# […] contains EB binding consensus motif, Ser/Thr-x-Ile-Pro (SxIP) (SEQ ID NO: 5). […] The role of the interaction between EB3 and IP3R3 was recently described by Geyer et al., Cell Rep 12(1):79-89; 2015. […] The effects of IP3R3 peptide and taxol were compared in regulating Ca^2+ release.
# [3] = test system: blood vessels ingrowth into matrigel plugs; assay: In vivo ectopic matrigel plug angiogenesis; design: species or system mice; conditions: for number of vessels / vessel formation in matrigel plugs: matrigel with heparin and VEGF, plugs removed at 96 hours, HE staining
# Procedure: (§1) Group 1 was treated with control peptide and group 3 was treated with Myr-EBIN at 0, 36 and 60 hrs; group 2 received only 36 and 60 hour treatment. […] Scale bar, 200 μm.
# EBIN effect on blood vessels in growth in an in vivo model of ectopic matrige angiogenesis was also investigated. Blood vessel in growth matrigel was pre-mixed with heparin and VEGF but not with endothelial cells, and i.p. injected into low abdomen of mice. There were two 400 μL plugs per mouse. […] These vessels were functional and perfused with blood that is apparent from the presence of red blood cells inside the vessels. In addition, mice were treated with EBIN at the time of matrigel injection (FIG. 7C,2; Group 2) or 36 hrs after matrigel (FIG. 7C,3; Group 3). Matrigel plugs were removed at 96 hours, fixed and stained with HE to assess the vessel formation.
# [4] = test system: human umbilical vein endothelial cells; assay: In vitro tubulogenesis in 2D matrigel model; assay type: cell-based; conditions: 1 μM; assessed 16 hours after plating on matrigel
# Procedure: as §1
# The effect of EBIN on in vitro tubulogenesis and in vivo angiogenesis was investigated using matrigel models. A single cell suspension of human umbilical vein endothelial cells was plated above matrigel-coated wells in the presence of 1 μM EBIN or control peptide; tube formation was assessed 16 hours later.
# [5] = test system: human VEGF-induced vascular leakage; assay: VEGF-induced subcutaneous vascular leakage of albumin-bound Evans Blue; assay type: in vivo, Balb/cJ mice; conditions: pretreated 1 μM/kg; human VEGF 50 ng/kg intradermal; measured at 620 nm
# Procedure: A study investigating whether injection of the EBIN prevented vascular endothelial growth factor (VEGF)-induced microvascular leakage was carried out. Balb/cJ mice were pretreated with the EBIN peptide (1 μM/kg) or a control peptide (2T→A mutation) and then human VEGF (50 ng/kg body weights) was intradermally injected to induce vascular leakage of albumin-bound Evans Blue (see FIG. 6A). In addition, the formamide-extracted Evans Blue was quantified spectrophotometically at 620 nm and corrected for hemoglobin (740 nm) and skin weight (see FIG. 6B).
# [6] = Acute toxicity testing in vivo (eye); design: species or system C57BL/6 mice
# Procedure: Representative images of Fundus Fluorescein Angiography F and corresponding Optical Coherence Tomography (FIG. 12B) at day 8 of intravitreal treatment with EBIN (1 μg/eye).
# A short term study is designed to assess safety of administration in vivo. C57BL/6 mice (n=10, 5 mice per group/treatment route) are randomized and divided into two groups. The first group is treated with EBIN in the right eye via eye drops delivered twice daily, 5 μg per eye (10 μl) and, the second group is treated with intravitreal injection of EBIN in the right eye at the maximum dose, 1 μg per eye (2 μl) on day one. The intravitreal injection is performed under ketamine/xylazine (100 mg/5 mg/kg) anesthesia. Both groups are monitored daily for general health including body weight as well as any eye abnormalities including opacity, exophthalmia enophthalmia, conjunctivitis, abnormal secretions or crusting, and corneal ulcers for a period of 8 days. Animals are subsequently subjected to fluorescein angiography and OCT imaging.
# [7] = test system: endothelial cell; assay type: cell-based; conditions: data not shown
# [8] = test system: laser-induced choroidal neovascularization (CNV); conditions: 1 μg/eye single intravitreal injection; day 15; versus control peptide
# Procedure: Quantification of the area of fluorescein leakage (FIG. 11D) and lesion (FIG. 11E) using images shown in (FIG. 11A) and (FIG. 11C); n=6-9 mice per group; **, p<0.01. […] Comparison between groups were performed using ANOVA.
# To assess the barrier-protective and anti-angiogenic activities of EBIN, EBIN is tested in murine models of CNV. In addition to treatment with EBIN, LEAF™ antibody (a monoclonal rat antibody against mouse VEGF-A) and control peptide (Myr-FAEIPTI), were used as positive and negative experimental controls, respectfully.
# Mice were anesthetized with a mixture of ketamine/xylazine (100 mg/5 mg/kg IP) and their pupils were dilated with a topical application of Cyclomydril (Alcon Laboratories, Fort Worth, Tex.). The fundus was viewed with an imaging camera, and laser photocoagulation was induced using the image-guided laser system (Micron IV, Phoenix Research Laboratories, Pleasanton, Calif.). Four laser burns at equal distance from the optic nerve were induced one by one in right eye by a green Argon laser pulse with a wavelength of 532 nm, a fixed diameter of 50 μm, duration of 70 ms, and power levels from 210-250 mW. Appearance of bubble or a small subretinal hemorrhage (diameter <1 mm) at the laser spot serves to indicate rupture of the Bruch's membrane and as confirmation of laser-induced CNV. This procedure was performed only on the right eye of each mouse. […]
Compound,number of vessels outside of the tumor ([1]; 10 μM/kg intraperitoneal for 4 days),tumor growth ([1]; intraperitoneal injection at 10 μM/kg body weight for 4 days),release of Ca2+ from ER in response to thrombin [2],number of vessels / vessel formation in matrigel plugs [3],tube formation (tubulogenesis) [4],"number of vessels outside of the tumor ([1]; 5 μM/kg, tail vein)","tumor growth rate ([1]; tail vein injection, 1 μM/kg body weight daily for 7 days)","tumor size ([1]; tail vein injection, 5 μM/kg body weight daily for 7 days)",effect of post-treatment versus treatment on vessel ingrowth ([3]; treatment started 36 hrs after matrigel versus at the time of matrigel injection),subcutaneous vascular leak of albumin-bound Evans Blue [5],"toxicity ([6]; eye drops 5 μg per eye twice daily or intravitreal 1 μg per eye, 8 days, with or without CNV induction)","crystals/precipitates in the eye ([6]; intravitreal 1 μg/eye, day 8)","changes in retinal vasculature, retinal pigment epithelium, choroid, sclera ([6]; intravitreal 1 μg/eye, day 8, angiography and OCT)",endothelial cell death or cell cycle arrest [7],vascular leakage (area of fluorescein leakage) [8]
"CC(=O)O[C@H]1C(=O)[C@@]2(C)[C@H]([C@H](OC(=O)c3ccccc3)[C@]3(O)C[C@H](OC(=O)[C@H](O)[C@@H](NC(=O)c4ccccc4)c4ccccc4)C(C)=C1C3(C)C)[C@]1(OC(C)=O)CO[C@@H]1C[C@@H]2O [taxol, reference compound]",significantly reduced,significant delay in the tumor growth,inhibits release of Ca^2+ from ER to the same extent as IP3R3 peptide,,,,,,,,,,,,
FAEIPTI [reference compound],,,,newly formed blood vessels grew into the matrigel,,,,,,,,,,,
FTEIPTI [EBIN],,,,markedly reduced,significantly abolished formation of tubes; also recorded: inhibited tubulogenesis,significantly reduced; also recorded: superior effect as compared to taxol,developed the tumor at the same rate as untreated mice,reduction in the tumor size; also recorded: significantly smaller as compared to control untreated group,post-treatment was as effective as a treatment,significantly inhibited subcutaneous vascular leak,No toxicity was observed,forms small crystals/precipitates inside of various humor,no visible changes,did not induce endothelial cell death or cell cycle arrest,significantly reduced
